# Entries after “also recorded” stand apart in the source; their conditions may differ.
# How the values were obtained:
# [1] = Metabolic stability in human liver microsomes; type: in vitro ADME
# Method: Metabolic stability studies were conducted using mouse, rat, and human liver microsomes. The protocol for the studies with mouse, rat, and human liver microsomes (all from BD Gentest, USA) is provided below. In brief, 0.4 mg protein was preincubated with 2 mM NADPH (cofactor) in phosphate buffer (pH˜7.4) for 15 min at 37° C. and then added with 1 μM test item and incubated further for 60 minutes in triplicate. The reaction mixture was terminated with methanol containing an internal standard and centrifuged further to analyze the test item remaining in the supernatant by LC-MS/MS. The percent parent compound remaining was calculated in comparison with similar samples terminated at 0 minutes.
# PI3Kβ = PI3Kβ (Mus musculus (Mouse), UniProt Q8BTI9); conditions: Cell-based; versus PI3Kδ
# Chain of PI3Kβ (Q8BTI9 whole entry, canonical isoform): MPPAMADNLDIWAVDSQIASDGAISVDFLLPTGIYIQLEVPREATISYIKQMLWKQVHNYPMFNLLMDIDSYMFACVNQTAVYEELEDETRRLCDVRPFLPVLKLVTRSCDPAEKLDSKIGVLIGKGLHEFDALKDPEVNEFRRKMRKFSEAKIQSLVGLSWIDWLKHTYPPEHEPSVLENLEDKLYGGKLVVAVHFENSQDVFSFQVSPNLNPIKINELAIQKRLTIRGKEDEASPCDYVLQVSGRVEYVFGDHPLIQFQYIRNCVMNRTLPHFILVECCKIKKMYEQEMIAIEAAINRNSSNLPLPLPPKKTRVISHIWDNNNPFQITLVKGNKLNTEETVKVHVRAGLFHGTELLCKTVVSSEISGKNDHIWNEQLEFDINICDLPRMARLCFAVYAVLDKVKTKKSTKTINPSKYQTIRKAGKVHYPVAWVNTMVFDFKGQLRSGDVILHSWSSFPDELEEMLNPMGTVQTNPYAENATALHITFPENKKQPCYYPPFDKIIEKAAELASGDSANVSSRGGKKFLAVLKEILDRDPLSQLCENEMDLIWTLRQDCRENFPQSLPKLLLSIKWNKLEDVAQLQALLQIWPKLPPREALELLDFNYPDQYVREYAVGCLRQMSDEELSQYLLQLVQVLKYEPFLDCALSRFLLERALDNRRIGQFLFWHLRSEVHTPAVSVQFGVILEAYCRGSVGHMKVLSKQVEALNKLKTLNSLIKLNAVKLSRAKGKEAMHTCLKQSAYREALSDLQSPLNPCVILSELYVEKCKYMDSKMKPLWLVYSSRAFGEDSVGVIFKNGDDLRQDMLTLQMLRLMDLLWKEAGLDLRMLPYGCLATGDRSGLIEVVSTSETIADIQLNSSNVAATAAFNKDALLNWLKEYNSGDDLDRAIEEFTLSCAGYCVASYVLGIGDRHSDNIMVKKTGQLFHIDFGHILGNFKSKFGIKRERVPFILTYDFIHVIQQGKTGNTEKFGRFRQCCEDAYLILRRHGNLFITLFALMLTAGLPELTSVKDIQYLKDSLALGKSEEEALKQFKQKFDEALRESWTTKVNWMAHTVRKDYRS
# Chain of PI3Kβ (P26450 whole entry partner, canonical isoform): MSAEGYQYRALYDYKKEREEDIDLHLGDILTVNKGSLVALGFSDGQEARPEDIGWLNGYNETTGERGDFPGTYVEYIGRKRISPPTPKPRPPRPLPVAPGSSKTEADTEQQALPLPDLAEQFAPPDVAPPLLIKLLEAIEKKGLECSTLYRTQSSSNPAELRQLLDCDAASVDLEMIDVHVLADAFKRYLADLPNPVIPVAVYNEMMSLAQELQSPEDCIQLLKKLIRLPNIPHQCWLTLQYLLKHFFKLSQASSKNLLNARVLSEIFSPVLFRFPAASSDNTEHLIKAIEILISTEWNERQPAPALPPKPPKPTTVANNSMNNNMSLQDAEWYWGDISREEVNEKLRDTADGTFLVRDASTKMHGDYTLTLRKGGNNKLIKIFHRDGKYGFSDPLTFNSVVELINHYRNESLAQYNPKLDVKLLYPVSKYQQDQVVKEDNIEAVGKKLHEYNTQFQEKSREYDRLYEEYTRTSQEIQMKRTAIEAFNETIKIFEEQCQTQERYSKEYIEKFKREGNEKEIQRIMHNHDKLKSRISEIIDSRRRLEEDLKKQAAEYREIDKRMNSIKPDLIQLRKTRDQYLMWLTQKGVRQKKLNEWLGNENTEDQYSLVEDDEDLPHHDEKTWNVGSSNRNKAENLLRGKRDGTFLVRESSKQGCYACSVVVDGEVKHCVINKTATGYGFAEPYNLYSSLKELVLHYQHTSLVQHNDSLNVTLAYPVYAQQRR
# Method: (§1) Compound specificity towards PI3Kδ was determined in an IgM-induced B cell proliferation assay. B-cells isolated from blood of healthy subjects were seeded in a 96-well tissue culture plate and incubated with desired concentrations of compound for 30 min. Cells were stimulated with 5 μg/ml purified goat anti-human IgM. Growth was assessed using the 3-[4,5-dimethylthiazol-2-yl]-2,5-diphenyltetrazolium bromide (MTT) dye reduction test. For selectivity against PI3K α, β, or γ isoforms, NIH-3T3 or RAW macrophages were seeded in a 6-well tissue culture plate and incubated overnight. Complete medium was replaced with serum-free media the following day and compound at the desired concentrations were added. After 15 minutes, 20 ng/ml PDGF, 5 μM LPA, or 50 ng/ml c5a was added and incubated for an additional 10 minutes. Cells were lysed and AKT phosphorylation was determined by Western Blotting. Intensity of the bands was determined using ImageJ 1.42q (NIH, USA) and normalized to Actin (loading control).
# PI3Kγ = PI3Kγ (Mus musculus (Mouse), UniProt Q9JHG7); conditions: Cell-based; versus PI3Kδ
# Method: as §1
# PI3Kα = PI3Kα (Mus musculus (Mouse), UniProt P42337); conditions: Cell-based; versus PI3Kδ
# Chain of PI3Kα (P42337 whole entry): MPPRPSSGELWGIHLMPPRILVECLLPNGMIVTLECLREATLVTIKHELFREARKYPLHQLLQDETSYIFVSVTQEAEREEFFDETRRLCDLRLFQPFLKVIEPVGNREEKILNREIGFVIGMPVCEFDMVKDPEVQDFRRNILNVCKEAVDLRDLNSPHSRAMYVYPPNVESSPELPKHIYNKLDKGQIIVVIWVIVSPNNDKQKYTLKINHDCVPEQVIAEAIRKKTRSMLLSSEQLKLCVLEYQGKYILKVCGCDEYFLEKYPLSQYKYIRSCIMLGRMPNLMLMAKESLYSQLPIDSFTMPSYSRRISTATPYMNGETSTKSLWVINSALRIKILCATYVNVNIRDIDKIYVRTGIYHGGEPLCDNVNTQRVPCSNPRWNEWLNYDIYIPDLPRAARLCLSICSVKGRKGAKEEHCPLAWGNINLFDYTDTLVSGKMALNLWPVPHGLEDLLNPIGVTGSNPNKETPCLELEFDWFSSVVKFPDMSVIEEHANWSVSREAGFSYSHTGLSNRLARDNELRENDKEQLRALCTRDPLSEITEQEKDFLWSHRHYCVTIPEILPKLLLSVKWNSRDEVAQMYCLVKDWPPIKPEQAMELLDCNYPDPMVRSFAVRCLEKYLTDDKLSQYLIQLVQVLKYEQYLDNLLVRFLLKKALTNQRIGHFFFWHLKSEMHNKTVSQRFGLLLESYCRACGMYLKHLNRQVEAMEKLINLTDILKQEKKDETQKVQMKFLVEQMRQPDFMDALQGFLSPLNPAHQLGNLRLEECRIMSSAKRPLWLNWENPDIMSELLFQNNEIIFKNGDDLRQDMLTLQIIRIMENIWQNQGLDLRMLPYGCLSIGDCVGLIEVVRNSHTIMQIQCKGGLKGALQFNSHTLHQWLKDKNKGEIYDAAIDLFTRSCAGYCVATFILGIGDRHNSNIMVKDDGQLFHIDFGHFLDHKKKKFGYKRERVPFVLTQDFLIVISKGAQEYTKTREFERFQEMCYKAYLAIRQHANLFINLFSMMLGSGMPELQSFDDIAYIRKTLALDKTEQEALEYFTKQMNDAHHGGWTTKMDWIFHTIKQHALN
# Chain of PI3Kα (P26450 whole entry partner): as the sequence (P26450 whole entry partner, canonical isoform) above
# Method: as §1
# [2] = system: AML patient bone marrow leukemic cells; experiment: Assay 6-III: Cell proliferation analysis of AML patient bone marrow sample (MTS); type: cell-based, human
# Method: 6-III: Cell proliferation analysis of AML patient bone marrow sample using MTS assay: Mononuclear cells were extracted by the Ficoll method and seeded in plates. The cells were treated by different compounds for 48 hrs and 72 hrs before they were analyzed by MTS assay following product instruction. Briefly, 20 μL of the MTS solution was added into each well containing the 100 μL cell suspension, followed by incubation for 4 hours at 37° C., in 95% humidity with presence of 5% CO2. The absorbance of 490 nm (A490) was read using SpectraMAX Plus microplate spectrophotometer.
# [3] = system: PI3Kδ signalling in basophils; experiment: Assay 4: Inhibition of PI3Kδ signalling in basophils from human whole blood (anti-FcεR1 induced CD63 expression); conditions: read-out: EC50, inhibition of anti-FcεR1 mediated CD63 expression
# Method: PI3Kδ signalling in basophils manifested by an alteration of anti-FcεR1 induced CD63 expression is a useful pharmacodynamic marker determined using the Flow2CAST® kit (Buhlmann Laboratories, Switzerland). Briefly, it involves the following steps: • Mix the anti-coagulated blood sample by inverting the venipuncture tube several times • Prepare fresh and pyrogen-free 3.5 ml polypropylene or polystyrene tubes suitable for Flow Cytometry measurements • Add 49 μl of patient's whole blood to each tube. • Add 1 μl of 10% DMSO (background) or compound (10% DMSO) to the assigned tubes and mix gently. Incubate at room temperature for 15 min • Pipette 50 μl of the Stimulation buffer (background) or anti-FcεRI Ab to each tube • Add 100 μl of Stimulation Buffer to each tube • Mix gently. […] (using an incubator will take about 10 minutes longer incubation time due to less efficient heat transfer) • Add 2 ml pre-warmed (18-28° C.) Lysing Reagent to each tube, mix gently • Incubate for 5-10 minutes at 18-28° C. • Centrifuge the tubes for 5 minutes at 500×g • Decant the supernatant by using blotting paper • Resuspend the cell pellet with 300-800 μl of Wash Buffer • Vortex gently and acquire the data on the flow cytometer within the same day. • Percent CD63 positive cells within the gated basophil population are to be determined in different treatment groups and normalized to vehicle control.
# [4] = system: pAKT in AML patient bone marrow leukemic cells; experiment: Assay 6-II: pAKT analysis of AML patient bone marrow sample (pAKT ELISA); type: cell-based, human
# Method: 6-II: pAKT analysis of AML patient bone marrow sample using pAKT ELISA kit: Mononuclear cells were extracted by the Ficoll method and seeded in plates. The cells were treated by different compounds for 48 hrs before they were analyzed by pAKT ELISA kit following the product protocol. Briefly, 1×10^6 cells were transferred into an ELISA kit well and lyzed with 10 μL 5× Cell Lysis Mix (phospho-AKT 1/2/3 (Ser473) InstantOne™ ELISA Kit, eBioscience, 85-86042). The cells were then incubated with 50 μl antibody cocktail for 1 hr at room temp. on a microplate shaker (˜300 rpm). After incubating with detection reagent, the result was measured using a SpectraMAX Plus microplate spectrophotometer set at 450 nm.
# PI3K α = PI3K α (Homo sapiens (Human), UniProt P42336); experiment: Assay 1: Fluorescent (HTRF) determination of PI3K enzyme activity, alpha; type: biochemical
# Chain of PI3K α (P42336 whole entry, canonical isoform): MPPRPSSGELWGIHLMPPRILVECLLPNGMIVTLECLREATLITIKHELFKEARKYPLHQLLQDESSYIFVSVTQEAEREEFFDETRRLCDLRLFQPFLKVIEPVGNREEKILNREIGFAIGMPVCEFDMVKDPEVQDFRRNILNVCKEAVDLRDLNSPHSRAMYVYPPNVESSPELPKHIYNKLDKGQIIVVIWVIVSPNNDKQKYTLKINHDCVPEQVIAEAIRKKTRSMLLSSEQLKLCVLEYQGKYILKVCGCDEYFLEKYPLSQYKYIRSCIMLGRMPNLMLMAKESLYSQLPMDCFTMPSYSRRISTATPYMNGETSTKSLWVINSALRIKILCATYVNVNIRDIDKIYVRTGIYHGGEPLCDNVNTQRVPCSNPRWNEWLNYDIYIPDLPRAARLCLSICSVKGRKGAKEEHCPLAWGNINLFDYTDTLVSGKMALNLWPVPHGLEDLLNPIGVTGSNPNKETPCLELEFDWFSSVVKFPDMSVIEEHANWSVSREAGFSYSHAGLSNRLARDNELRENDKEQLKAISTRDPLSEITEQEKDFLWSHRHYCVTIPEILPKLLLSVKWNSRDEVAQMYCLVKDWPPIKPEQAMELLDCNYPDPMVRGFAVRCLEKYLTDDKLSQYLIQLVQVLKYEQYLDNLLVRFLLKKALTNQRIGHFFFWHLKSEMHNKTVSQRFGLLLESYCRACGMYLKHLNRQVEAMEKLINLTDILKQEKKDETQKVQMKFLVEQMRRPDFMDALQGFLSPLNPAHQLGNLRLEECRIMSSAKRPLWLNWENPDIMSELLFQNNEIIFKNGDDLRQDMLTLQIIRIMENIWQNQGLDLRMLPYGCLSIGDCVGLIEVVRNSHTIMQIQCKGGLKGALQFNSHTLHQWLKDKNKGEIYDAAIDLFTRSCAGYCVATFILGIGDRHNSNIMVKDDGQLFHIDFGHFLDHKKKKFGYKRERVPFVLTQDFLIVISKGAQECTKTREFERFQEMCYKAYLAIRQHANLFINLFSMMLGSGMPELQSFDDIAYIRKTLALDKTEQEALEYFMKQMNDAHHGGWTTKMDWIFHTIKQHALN
# Chain of PI3K α (P27986 whole entry partner, canonical isoform): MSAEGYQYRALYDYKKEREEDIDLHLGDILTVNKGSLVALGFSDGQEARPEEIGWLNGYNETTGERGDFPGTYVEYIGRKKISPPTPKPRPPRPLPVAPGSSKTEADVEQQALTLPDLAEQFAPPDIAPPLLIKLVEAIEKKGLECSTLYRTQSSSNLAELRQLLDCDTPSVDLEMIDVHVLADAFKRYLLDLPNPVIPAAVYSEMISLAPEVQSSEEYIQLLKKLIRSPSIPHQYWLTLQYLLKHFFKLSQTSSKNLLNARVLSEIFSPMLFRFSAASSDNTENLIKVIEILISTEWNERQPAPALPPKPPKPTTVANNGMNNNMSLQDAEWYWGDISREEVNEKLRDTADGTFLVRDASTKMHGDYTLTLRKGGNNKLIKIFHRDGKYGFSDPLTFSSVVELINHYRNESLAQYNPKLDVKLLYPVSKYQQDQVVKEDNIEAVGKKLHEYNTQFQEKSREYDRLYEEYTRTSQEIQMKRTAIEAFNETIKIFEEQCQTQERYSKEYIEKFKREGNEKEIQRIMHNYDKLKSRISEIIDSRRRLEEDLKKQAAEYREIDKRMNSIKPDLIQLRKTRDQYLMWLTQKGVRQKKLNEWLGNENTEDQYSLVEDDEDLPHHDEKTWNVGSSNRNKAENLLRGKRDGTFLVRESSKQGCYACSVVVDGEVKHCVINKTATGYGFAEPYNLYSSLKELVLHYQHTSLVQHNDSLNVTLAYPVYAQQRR
# Method: The homogenous time resolved fluorescence (HTRF) assay allows detection of 3,4,5-triphosphate (PIP3) formed as a result of phosphorylation of phosphotidylinositol 4,5-biphosphate (PIP2) by PI3K isoforms such as α, β, γ or δ.
# PI3K isoform activity for α, β, γ or δ was determined using a PI3K human HTRF™ Assay Kit (Millipore, Billerica, Mass.) with modifications. All incubations were carried out at room temperature. […] After the initial incubation, 5 μl/well of 400 μM ATP was added and incubated for an additional 30 minutes. Reaction was terminated by adding 5 μl/well stop solution (Millipore, Billerica, Mass.). Five microliters of detection mix (Millipore, Billerica, Mass.) were then added to each well and was incubated for 6-18 h in the dark.
compound,measurement,setting,value
"CC(C)Oc1ccc(-c2nn([C@@H](C)c3oc4ccccc4c(=O)c3-c3cccc(F)c3)c3ncnc(N)c23)cc1F [Compound A1, (S)-2-(1-(4-amino-3-(3-fluoro-4-isopropoxyphenyl)-1H-pyrazolo[3,4-d]pyrimidin-1-yl)ethyl)-3-(3-fluorophenyl)-4H-chromen-4-one]","Metabolic stability in liver microsomes, Human (percent parent compound remaining)","[1]; 1 μM test item, 60 minutes, NADPH",54.5%
same,fold greater metabolic stability in human liver microsomes than its enantiomer,"[1]; A1 vs A2, B1 vs B2",~5 fold
same,Fold-Selectivity PI3Kβ,PI3Kβ,>30 fold
same,Fold-Selectivity PI3Kγ,PI3Kγ,>8 fold
same,Fold-Selectivity PI3Kα,PI3Kα,>1000 fold
same,cell viability / proliferation,[2],dose dependent reduction in proliferation; also recorded: Dose dependent reduction in cell viability
same,EC50,[3],≤ 100 nM
same,AKT phosphorylation (dose dependence),[4],dose dependent reduction
same,inhibition at 0.3 µM,"[4]; Homo sapiens, Bone marrow cell, 0.3 μM, 48 hrs",> 50%
same,inhibition at 1 µM,PI3K α,8.91%
same,Fold-Selectivity PI3Kα,"PI3K α; Enzyme, versus PI3Kδ",>1000 fold
